Data on 39 molecules can be found in US5861476A, “Peptides and compounds that bind to the IL-1 receptor” (Affymax Technologies N.V., priority 1995, dated 1999).

Where a SMILES comes first, the peptide text is derived from it. Where no end group is shown, it is not given here. [ ]: non-standard residue; d: D form. Bpa = N[C@@H](Cc1ccc(C(=O)c2ccccc2)cc1)C(=O)O; Aze = O=C(O)[C@@H]1CCN1

The target in one assay is T1, IL-1RtI (Homo sapiens, UniProt P14778).
T1 construct: made in house; host or cells: recombinant host cells (one form soluble from baculovirus transformed host cells; another PIG-tailed and cleaved from the cell surface)
T1 sequence (P14778 18-336): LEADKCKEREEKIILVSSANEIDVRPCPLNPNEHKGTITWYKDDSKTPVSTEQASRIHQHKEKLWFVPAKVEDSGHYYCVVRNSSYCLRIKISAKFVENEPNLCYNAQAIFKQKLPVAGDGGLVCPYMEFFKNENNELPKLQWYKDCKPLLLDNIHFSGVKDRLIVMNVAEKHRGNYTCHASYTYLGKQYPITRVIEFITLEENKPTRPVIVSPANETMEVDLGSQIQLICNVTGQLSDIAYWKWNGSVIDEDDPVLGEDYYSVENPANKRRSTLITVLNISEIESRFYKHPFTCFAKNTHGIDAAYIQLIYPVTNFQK
Put plainly: Inhibition of 125I-IL-1α binding to IL-1RtI (Example 3).
Conditions: not given
As for the experimental part:
This example provides the results of experiments conducted to determine an approximate IC50 for certain peptides of the invention. IC50 as used herein refers to the concentration of a compound which will inhibit 50% of the binding between a receptor and its ligand, e.g. IL-1RtI and IL-1. Stock solutions of each peptide were prepared. The appropriate amount of the peptide was dissolved in DMSO, and then nineteen volumes of binding buffer (RPMI 1640, 1% BSA, 20 mM HEPES, pH 7.2-7.3, and 0.1% sodium azide) were added to yield a 1 mM peptide, 5% DMSO stock solution.
One assay utilized a truncated IL-1RtI which had been immobilized on 96-well plates with an appropriate antibody, typically a non-blocking high affinity antibody. In other assays, cells expressing "full-length" IL-1RtI were used with results that yielded IC50 values about 5 to 10 fold lower than those determined using the truncated receptor. The cells were seeded onto Falcon 3072 96-well plates at about 10^5 cells per well, and the plates were incubated overnight at 37° C. in media containing serum. The following morning, the cells were checked to ensure that the cells were confluent and adhered to the bottom of the wells.
According to either assay protocol, the plates were then washed three times with binding buffer, and then 50 μl of binding buffer and 25 μl of a peptide solution (either the stock solution or a dilution thereof; each stock was subjected to five three fold dilutions) were added to each well. Then 25 μl of binding buffer containing ^125 I-IL-1α (final concentration of 90 pM) were added to each well to begin the assay. Each assay was carried out in duplicate. The plates were then incubated for two hours at 4° C. For peptides having particularly high affinities, the assay was run in 24 well plates allowing for higher levels of ligand (possible total volume of 2.5 ml instead of 100 μl in the 96 well plate), thereby minimizing the potential for ligand depletion.
After the two hour incubation, the wells were rinsed three times with ice cold PBS (a semi-automated cell harvesting device was used to conduct the rinse). The receptors or cells were then detached from the plates by adding 100 μl of 0.1N NaOH to each well and incubating the plates at room temperature for 20 minutes. After the 20 minute incubation, about 75 μl of the suspension was counted on a gamma counter, and the IC50 for each peptide was determined using computer assistance and the results of the gamma counting.
As a reminder, the IC50 is the concentration that gives 50% inhibition. Read a high IC50 as lower potency. The molecule HIDNTAWYENFLLTYTP [HIDNTAWYENFLLTYTP] had an IC50 of under 0.5 µM. As to `C[C@H](NC(=O)[C@H](CC(N)=O)NC(=O)[C@H](CO)NC(=O)[C@H](CCC(=O)O)NC(=O)[C@H](CCC(=O)O)NC(=O)[C@H](Cc1c[nH]c2ccccc12)NC(=O)[C@@H](NC(=O)[C@@H](N)Cc1ccccc1)[C@@H](C)O)C(=O)N[C@@H](Cc1ccc(O)cc1)C(=O)N[C@@H](Cc1ccc(O)cc1)C(=O)N[C@@H](Cc1c[nH]c2ccccc12)C(=O)N[C@@H](CCC(N)=O)C(=O)N1CC[C@H]1C(=O)N[C@@H](Cc1ccc(O)cc1)C(N)=O` [FTWEESNAYYWQJY-NH2] (H-FTWEESNAYYWQ[Aze]Y-NH2), the IC50 is under 0.5 µM. Same read-out and setting: the figure for `C[C@@H](O)[C@H](NC(=O)[C@H](Cc1c[nH]c2ccccc12)NC(=O)[C@H](CCC(=O)O)NC(=O)[C@@H](N)Cc1ccccc1)C(=O)N1CCC[C@H]1C(=O)N[C@H](CC(N)=O)C(=O)N[C@@H](Cc1ccc(O)cc1)C(=O)N[C@@H](Cc1ccc(O)cc1)C(=O)N[C@@H](CCC(N)=O)C(=O)N1CC[C@H]1C(=O)N[C@@H](Cc1ccc(O)cc1)C(N)=O` [FEWTPnYYQJY-NH2] (H-FEWTP[dN]YYQ[Aze]Y-NH2) is under 0.5 µM. QIDNTAWYERFLLQYNA [QIDNTAWYERFLLQYNA]: the IC50 was under 0.5 µM.

As for TYTYDNTAWYERFLMSY [TYTYDNTAWYERFLMSY], the IC50 was under 0.5 µM.

The assay is the same for the next values; noted with them: inhibition of 125I-IL-1α binding to IL-1RtI; soluble peptide unless marked *.
Molecule `CC(C)[C@@H](NC(=O)[C@@H]1CCCN1C(=O)[C@@H](NC(=O)[C@H](Cc1c[nH]c2ccccc12)NC(=O)[C@H](CCC(=O)O)NC(=O)[C@@H](N)Cc1ccccc1)[C@@H](C)O)C(=O)N[C@@H](Cc1ccc(O)cc1)C(=O)N[C@@H](Cc1c[nH]c2ccccc12)C(=O)N[C@@H](CCC(N)=O)C(=O)N1CC[C@H]1C(=O)N[C@@H](Cc1ccc(O)cc1)C(N)=O` [FEWTPvYWQJY--NH2] (H-FEWTP[dV]YWQ[Aze]Y-NH2) came in with an IC50 of at most 0.5 µM. Turning to “ENTYSPNWADSMYWQPYALPL [ENTYSPNWADSM YWQPYALPL]”, the IC50 is at most 0.5 µM.

Consider EWYQPYALGWAR [EWYQPYALGWAR], for which the IC50 was at most 100 µM. The molecule FYEWWQPYALPL [FYEWWQ PYALPL] displayed an IC50 of at most 100 µM. The same measure, in the same setting: the figure for TLVYWQPYSLQT [Peptide H3, TLVYWQPYSLQT] is at most 100 µM. The same measure, in the same setting: the figure for WGNWWQPYSVHR [WGNWWQPYSVHR] is over 100 µM; for EWTPGYWQPY-NH2 [EWTPGYWQPY--NH2] it is at most 100 µM. Still for that read-out and setting: the figure for `CC(=O)N[C@@H](Cc1ccccc1)C(=O)N[C@@H](CCC(=O)O)C(=O)N[C@@H](Cc1ccc(C(=O)c2ccccc2)cc1)C(=O)N[C@H](C(=O)N1CCC[C@H]1C(=O)NCC(=O)N[C@@H](Cc1ccc(O)cc1)C(=O)N[C@@H](Cc1ccc(O)cc1)C(=O)N[C@@H](CCC(N)=O)C(=O)N1CC[C@H]1C(=O)N[C@@H](Cc1ccc(O)cc1)C(N)=O)[C@@H](C)O` [AcFE--Bpa--TPGYYQJY--NH2] (Ac-FE[Bpa]TPGYYQ[Aze]Y-NH2) is at most 100 µM; for `CC(=O)N[C@@H](Cc1ccccc1)C(=O)N[C@@H](CCC(=O)O)C(=O)N[C@@H](Cc1c[nH]c2ccccc12)C(=O)N[C@H](C(=O)N1CCC[C@H]1C(=O)NCC(=O)N[C@@H](Cc1ccc(O)cc1)C(=O)N[C@@H](Cc1ccc(C(=O)c2ccccc2)cc1)C(=O)N[C@@H](CCC(N)=O)C(=O)N1CC[C@H]1C(=O)N[C@@H](Cc1ccc(O)cc1)C(N)=O)[C@@H](C)O` [AcFEWTPGY--Bpa--QJY--NH2] (Ac-FEWTPGY[Bpa]Q[Aze]Y-NH2) it is at most 0.5 µM. `C[C@H](NC(=O)[C@@H]1CCN1C(=O)[C@H](CCC(N)=O)NC(=O)[C@H](Cc1c[nH]c2ccccc12)NC(=O)[C@H](Cc1ccc(O)cc1)NC(=O)CNC(=O)[C@@H]1CCCN1C(=O)[C@@H](NC(=O)[C@H](Cc1c[nH]c2ccccc12)NC(=O)[C@H](CCC(=O)O)NC(=O)[C@@H](N)Cc1ccccc1)[C@@H](C)O)C(N)=O` [FEWTPGYWQJA--NH2] (H-FEWTPGYWQ[Aze]A-NH2) registered an IC50 of at most 100 µM. Still for that read-out and setting: to GWWQPYARGL [GWWQPYARGL] belongs at most 100 µM; to “SVGEDHNFWTSEYWQPYALPL [SVGEDHNFWTSE YWQPYALPL]”, at most 0.5 µM.

On to `C[C@@H](O)[C@H](NC(=O)[C@H](Cc1c[nH]c2ccccc12)NC(=O)[C@H](CCC(=O)O)NC(=O)[C@@H](N)Cc1ccccc1)C(=O)N1CCC[C@H]1C(=O)NCC(=O)N[C@@H](Cc1ccc(O)cc1)C(=O)N[C@@H](Cc1ccc(C(=O)c2ccccc2)cc1)C(=O)N[C@@H](CCC(N)=O)C(=O)N1CC[C@H]1C(=O)N[C@@H](Cc1ccc(O)cc1)C(N)=O` [FEWTPGY--Bpa--QJY--NH2] (H-FEWTPGY[Bpa]Q[Aze]Y-NH2), for which the IC50 was at most 0.5 µM.

In turn, PWIQPYARGFG [PWIQPYARGFG] returned an IC50 of at most 100 µM.

Turning to DYVWQQPYALPL [DYVWQQ PYALPL], the IC50 was at most 100 µM. Same read-out and setting: to GWEQPYARGLAG [GWEQPYARGLAG] belongs at most 100 µM; to “SWTDYGYWQPYALPISGL [SWTDYG YWQPYA LPISGL]”, at most 0.5 µM.

As for RPLYWQPYSVQV [RPLYWQPYSVQV], the IC50 is at most 100 µM. Still for that read-out and setting: to YFQPYALPF [YFQPYALPF] belongs over 100 µM. The same measure, in the same setting: the figure for RSLYWQPYALPL [RSLYWQ PYALPL] is at most 100 µM; for `C[C@@H](O)[C@H](NC(=O)[C@H](Cc1c[nH]c2ccccc12)NC(=O)[C@H](CCC(=O)O)NC(=O)[C@@H](N)Cc1ccccc1)C(=O)N1CCC[C@@H]1C(=O)NCC(=O)N[C@@H](Cc1ccc(O)cc1)C(=O)N[C@@H](Cc1c[nH]c2ccccc12)C(=O)N[C@@H](CCC(N)=O)C(=O)N1CC[C@H]1C(=O)N[C@@H](Cc1ccc(O)cc1)C(N)=O` [FEWTpGYWQJY--NH2] (H-FEWT[dP]GYWQ[Aze]Y-NH2) it is at most 0.5 µM; for FIEWFQPYALPL [FIEWFQ PYALPL] it is at most 100 µM. Still for that read-out and setting: the figure for “RLVYWQPYSVQT [Peptide 3H2, RLVYWQPYSVQT]” is at most 100 µM; for `CC(=O)N[C@@H](Cc1ccc(C(=O)c2ccccc2)cc1)C(=O)N[C@@H](CCC(=O)O)C(=O)N[C@@H](Cc1c[nH]c2ccccc12)C(=O)N[C@H](C(=O)N1CCC[C@H]1C(=O)NCC(=O)N[C@@H](Cc1ccc(O)cc1)C(=O)N[C@@H](Cc1ccc(O)cc1)C(=O)N[C@@H](CCC(N)=O)C(=O)N1CC[C@H]1C(=O)N[C@@H](Cc1ccc(O)cc1)C(N)=O)[C@@H](C)O` [AcBpa--EWTPGYYQJY--NH2] (Ac-[Bpa]EWTPGYYQ[Aze]Y-NH2) it is at most 0.5 µM.

On to AHLFWQPYSVQR [AHLFWQPYSVQR], for which the IC50 is at most 100 µM.

Molecule `C[C@H](NC(=O)[C@H](CCC(=O)O)NC(=O)[C@@H](N)Cc1ccccc1)C(=O)N[C@H](C(=O)N1CCC[C@H]1C(=O)NCC(=O)N[C@@H](Cc1ccc(O)cc1)C(=O)N[C@@H](Cc1c[nH]c2ccccc12)C(=O)N[C@@H](CCC(N)=O)C(=O)N1CC[C@H]1C(=O)N[C@@H](Cc1ccc(O)cc1)C(N)=O)[C@@H](C)O` [FEATPGYWQJY--NH2] (H-FEATPGYWQ[Aze]Y-NH2) showed an IC50 of at most 100 µM. Turning to GWTQPYSQQGEV [GWTQPYSQQGEV], the IC50 is at most 100 µM. The same measure, in the same setting: the figure for `CC(C)[C@H](NC(=O)[C@@H](NC(=O)[C@H](Cc1c[nH]c2ccccc12)NC(=O)[C@H](CCC(=O)O)NC(=O)[C@@H](N)Cc1ccccc1)[C@@H](C)O)C(=O)N1CCC[C@H]1C(=O)N[C@@H](Cc1ccc(O)cc1)C(=O)N[C@@H](Cc1c[nH]c2ccccc12)C(=O)N[C@@H](CCC(N)=O)C(=O)N1CC[C@H]1C(=O)N[C@@H](Cc1ccc(O)cc1)C(N)=O` [FEWTVPYWQJY--NH2] (H-FEWTVPYWQ[Aze]Y-NH2) is at most 100 µM. The same measure, in the same setting: the figure for YWYQPYALPL [YWYQPYALPL] is at most 100 µM. Molecule HWGHVYWQPYSVQDDLG [HWGH VYWQPYSVQ DDLG] registered an IC50 of at most 100 µM. On to VWYWEQPYALPL [VWYWEQ PYALPL], for which the IC50 is at most 100 µM.

Turning to TLIYWQPYSVQI [TLIYWQPYSVQI], the IC50 was at most 100 µM. Same read-out and setting: the figure for SRIWCQPYALPL [SRIWCQ PYALPL] is at most 100 µM. As to `C[C@@H](O)[C@H](NC(=O)[C@H](Cc1c[nH]c2ccccc12)NC(=O)[C@H](CCC(=O)O)NC(=O)[C@@H](N)Cc1ccc(O)cc1)C(=O)N1CCC[C@H]1C(=O)NCC(=O)N[C@@H](Cc1ccc(O)cc1)C(=O)N[C@@H](Cc1ccc(O)cc1)C(=O)N[C@@H](CCC(N)=O)C(=O)N1CC[C@H]1C(=O)N[C@@H](Cc1ccc(O)cc1)C(N)=O` [YEWTPGYYQJY--NH2] (H-YEWTPGYYQ[Aze]Y-NH2), the IC50 was at most 0.5 µM.
